Values of other authors, collected in patent publication US20070123520A1 (priority 2005, published 2007).

Assays:
methemoglobinemia = conditions: in vivo, iv, 1 mg/kg
[1] = in vivo
[2] = in vivo; remark: listed apart in the source
sheep = conditions: in vivo
[3] = in vivo; remark: listed apart in the source
[4] = in vivo; remark: listed apart in the source

What does the source list for `CN(C)c1ccc2nc3ccc(N(C)C)cc3[s+]c2c1.[Cl-]` [methylene blue, 3,7-Bis(dimethylamino)-phenothiazin-5-ium chloride]?
treatment of methemoglobinemia (methemoglobinemia): effective; absorption from the GI tract [1]: absorbed well; Oral absorption (range) ([1]; po): 53-97%; overall elimination rate constant [2]: 0.0076 ± 0.0016 min⁻¹; methemoglobin production (sheep): minimal; hematologic changes (sheep; 30 mg/kg): no hematologic changes; crossing of the blood-milk barrier [3]: crosses the blood-milk barrier easily; Side effects [4]: blue urine, occasional nausea, anemia and fever; side effects [4]: minimal side effects

With `CC(N)C12CC3CC(CC(C3)C1)C2` (stereo not shown) [rimantadine] as the compound, how does the “activity against influenza A viruses” value (influenza A viruses) read?
Its value is “activity”.

For `NC12CC3CC(CC(C3)C1)C2` [amantadine], which “activity against influenza A viruses” value (influenza A viruses) is on record?
Its value is “activity”.

For `CC(=O)N[C@H]1[C@H]([C@H](O)[C@H](O)CO)OC(C(=O)O)=C[C@@H]1N=C(N)N` [zanamivir], which “activity against influenza A viruses” value (influenza A viruses) is on record?
Its value is “activity”.

For `CCOC(=O)C1=C[C@@H](OC(CC)CC)[C@H](NC(C)=O)[C@@H](N)C1` [oseltamivir], which “activity against influenza A viruses” value (influenza A viruses) is on record?
The value was “activity”.
